Test results taken from patent publication US11185523B2, “Use of bipolar trans carotenoids with chemotherapy and radiotherapy for treatment of cancer” (DIFFUSION PHARMACEUTICALS LLC, priority 2016, dated 2021).
Entries after “also recorded” stand apart in the source; their conditions may differ.

Legend:
[1] = Phase 1 and Phase 2 clinical trials of TSC, safety; type: in vivo; conditions: 148 human subjects
Excerpt: A Phase ½ clinical trial was recently completed examining TSC in patients with GBM. The Phase ½ clinical trial in GBM enrolled 59 patients with newly diagnosed disease that received TSC in conjunction with radiation therapy (RT) and temozolomide (TMZ). In the Phase I portion of the trial TSC was initially administered three times per week at half-dose to three patients prior to radiation. Six additional patients received full dose TSC for six weeks in combination with radiation. […] Fifty additional patients were enrolled in the Phase II trial at full dose TSC in combination with TMZ and RT. Four weeks after completion of RT, all patients resumed TMZ for five days every four weeks, but no further TSC was administered.

[2] = system: Cancer: Radiation Sensitizer; assay: Pre-clinical efficacy study: Cancer: Radiation Sensitizer; type: in vivo
Excerpt: (§1) It has also been determined that several non-cancer disorders are beneficially treated utilizing an administration regimen of a bipolar trans carotenoid such as TSC, as described below.

[3] = Change in partial pressure of oxygen, low vs high efficacious dose (FIG. 1); type: in vivo; conditions: FIG. 1 hyperoxic rat
Experimental: FIG. 1 illustrates the change in partial pressure of oxygen of a hyperoxic rat resulting from administration of a low efficacious dose amount compared to a high efficacious dose amount of TSC.
It has been discovered that for a mammal, there are two concentrations of a bipolar trans carotenoid, such as TSC, that result in increased oxygen partial pressure—the “low” dose and the “high” dose—in a tumor. For humans, the low dose range is 0.15-0.35 mg/kg and the high dose range is 0.75 to 2.0 mg/kg. Both doses result in approximately the same maximum increase in oxygen partial pressure.

Critical Limb Ischemia = assay: Pre-clinical efficacy study: Critical Limb Ischemia; type: in vivo; conditions: Mouse
Excerpt: as §1

Parkinson's Disease = assay: Pre-clinical efficacy study: Parkinson's Disease; type: in vivo; conditions: Rat
Excerpt: as §1

Ischemic Stroke = assay: Pre-clinical efficacy study: Ischemic Stroke; type: in vivo
Excerpt: as §1

Cancer Chemosensitizer = assay: Pre-clinical efficacy study: Cancer Chemosensitizer; type: in vivo; conditions: Rat
Excerpt: as §1

[4] = Absorption into blood stream after intramuscular injection with gamma cyclodextrin; type: in vivo, rat; conditions: injected intramuscularly, rats
Excerpt: The use of gamma-cyclodextrin with TSC increases the solubility of TSC in water by 3-7 times. […] The incorporation of the gamma cyclodextrin also allows for TSC to be absorbed into the blood stream when injected intramuscularly. Absorption is quick, and efficacious blood levels of TSC are reached quickly (as shown in rats).

Wound Healing = assay: Pre-clinical efficacy study: Wound Healing; type: in vivo; conditions: Pig
Excerpt: as §1

hypoxic tissue = assay: Reoxygenation of hypoxic tissue after low and high dose; type: in vivo, human; conditions: humans
Excerpt: With bipolar trans carotenoids such as TSC, there are discrete concentrations that produce efficacy in causing maximum oxygen partial pressure in animals or humans.

Hemorrhagic Shock = assay: Pre-clinical efficacy study: Hemorrhagic Shock; type: in vivo
Excerpt: as §1

DMBA breast tumors = assay: DMBA breast tumor model, TSC before chemotherapy; type: in vivo; conditions: for tumor growth, timing of TSC injection: Day 2, FIG. 5
Experimental: Breast tumors were induced through injection of DMBA (dimethylbenzantracene) under the mammary tissue of female rats. The tumors usually grow in most rats and reach measurable conditions after 10 days.
The following studies used a method in which a 3-mL syringe is filled first with 1 ml of DMBA dissolved in sunflower seed oil (20 mg DMBA per mL of solution). Following that, 2 mL's of air are pulled into the syringe. The needle of the syringe is then inserted under the mammary tissue near a hind leg and the air in the syringe is carefully injected. The injection of the air forms a “pocket”, and then the 1 mL of DMBA solution is injected into that pocket.
After the tumors have grown up (about 10 days), their volumes are estimated by measuring the diameter (d) and the length (L) of the football-shaped tumors formed. This is done using calipers after feeling the tumor with one's fingers. To estimate the volume of the tumor, you multiply the diameter squared times the length and divide by 2: Tumor volume (in mm3)={(d in mm)^22}×(L in mm)
TSC or saline (controls) was injected in the tail vein of the rats at a volume of 0.1 mL and a dose of 0.25 mg/kg TSC about 1-2 hours before the chemotherapeutic agent was injected intraperitoneally (IP) in the rats.
In order to understand which dosages are efficacious when used with chemotherapy, a rat model of breast tumors was used. The model involves injecting the chemical dimethylbenzanthracene (DMBA) under the mammary gland of a female Sprague-Dawley rat. After a few days, tumors begin to grow and can be measured by feeling the football-shaped tumor under the skin and measured using calipers.

Myocardial Infarction = assay: Pre-clinical efficacy study: Myocardial Infarction; type: in vivo; conditions: Pig
Excerpt: as §1

VEGF A gene = assay: Expression of HIF1 targeted genes in hypoxic conditions; conditions: gene upregulated with hypoxia
Excerpt: The subject disclosure relates to the treatment of various tumors and/or cancers (i.e., gliobastoma, pancreatic cancer, etc.). It is well established that tumors are hypoxic with many tumor types being highly hypoxic. Further, it is known that hypoxic tumors are more resistant to radiotherapy and chemotherapy. Through HIF1 alpha up-regulation, hypoxia is associated with multiple negative effects that lead to aggressive tumor phenotypes. These effects include increased angiogenesis, increased metastasis, as well as increased resistance to chemotherapy and radiation therapy. Hypoxia via HIF1a affects many genes involved in cancer progression. Bipolar trans carotenoids such as TSC alter expression of HIF1 targeted genes in hypoxic conditions.

In the case of `CC(/C=C/C=C(\C)C(=O)[O-])=C\C=C\C=C(C)\C=C\C=C(/C)C(=O)[O-].[Na+].[Na+]` [TSC, trans sodium crocetinate], the serious adverse events [1] is reported as “no serious adverse events reported”, the “Best Dosage” value ([2]; Mouse) is reported as “Low” and the “Best Dosage” value ([2]; Rat) is reported as “Low”. For the same molecule, the “oxygen partial pressure, duration of maximum” value [3] was “sustained maximum oxygen partial pressure”, the “Best Dosage” value (Critical Limb Ischemia) was “High” and the “Best Dosage” value (Parkinson's Disease) was “High”. For the same molecule, the “Best Dosage” value (Ischemic Stroke; Rabbit) was “Low”, the “Best Dosage” value (Ischemic Stroke; Rat) was “Low” and the “Best Dosage” value (Cancer Chemosensitizer) was “High”. The “absorption into the blood stream” value [4] was “quick”, the “Best Dosage” value (Wound Healing) was “High” and the “duration of maximum reoxygenation” value (hypoxic tissue; high dose of 0.75-2.0 mg/kg, e.g. 1.5 mg/kg) was “lasts for over an hour”. For the same molecule, the “duration of maximum reoxygenation” value (hypoxic tissue; low dose of 0.15-0.35 mg/kg) was “lasts for a short time”, the “time of maximum reoxygenation of hypoxic tissue after injection” value (hypoxic tissue; low dose of 0.15-0.35 mg/kg, e.g. 0.25 mg/kg) was 50 min and the “Best Dosage” value (Hemorrhagic Shock; Pig) was “Low”. For the same molecule, the “Best Dosage” value (Hemorrhagic Shock; Rat, low dose (for rats) 0.1 mg/kg, high 0.25 mg/kg) was “Low”, the “effect on tumor volume with cisplatin” value (DMBA breast tumors; high dose (for rats) 0.25 mg/kg TSC 2 hours before 1 mg/kg cisplatin IP on days 0, 4, 11, 18, FIG. 2) was “efficacious; also recorded: significant improvement in tumor volume over the control” and the “tumor growth, timing of TSC injection” value (DMBA breast tumors; high dose TSC 2 hours before gemcitabine 7.5 mg/kg) was “best and best results”. For the same molecule, the “pseudoprogression (increase in tumor volume on day 7)” value (DMBA breast tumors; high dose TSC 2 hours prior to doxorubicin) was “Pseudoprogression was also seen”, the “tumor growth with doxorubicin” value (DMBA breast tumors; high dose TSC 2 hours prior to doxorubicin, FIG. 7) was “marked reduction in tumor growth in comparison with the control group” and the “pseudoprogression (increase in tumor volume on day 7)” value (DMBA breast tumors; high dose TSC 2 hours prior to temozolomide, FIG. 6) was “pseudoprogression was seen”. The pseudoprogression (DMBA breast tumors; high dose TSC 2 hrs. prior to paclitaxel) was “Pseudoprogression was also seen”, the “tumor growth with paclitaxel” value (DMBA breast tumors; high dose TSC 2 hrs. prior to paclitaxel, Days 0, 4, 8, 14, FIG. 8) was “marked reduction in tumor growth in comparison with the control group” and the “tumor growth, timing of TSC injection” value (DMBA breast tumors; high dose TSC concurrently, 1 hour before or 2 hours before gemcitabine 7.5 mg/kg) was “reduced tumor growth relative to control”. The “tumor growth with gemcitabine” value (DMBA breast tumors; high dose of TSC 2 hours before 5 mg/kg gemcitabine IP on days 0, 3, FIG. 4) was “substantially less tumor growth than those in the control group”, the “effect on tumor volume with gemcitabine” value (DMBA breast tumors; high dose of TSC 2 hours before 10 mg/kg gemcitabine IP on days 0, 3, day 3, FIG. 3) was “efficacious; also recorded: significant decrease in tumor volume” and the “Best Dosage” value (Myocardial Infarction) was “Low”. For the same molecule, the “VEGF A gene expression” value (VEGF A gene) was “down regulated”.
